Columns and labels:
rats subjected to SNL [1] = experiment: Spinal nerve ligation (SNL) L5 model, mechanical allodynia (digital Von Frey); format: in vivo, rat; conditions: after the first day of treatment, p<0.05
Swiss mice = experiment: Hot plate model, assay for acute pain; format: in vivo; conditions: ip, 32.25 μmol/kg
rats subjected to SNL [2] = experiment: Spinal nerve ligation (SNL) L5 model, thermal hyperalgesia; format: in vivo, rat
rats subjected to SNL [3] = experiment: Spinal nerve ligation (SNL) L5 model, mechanical allodynia (digital Von Frey); format: in vivo, rat; conditions: for paw withdrawal threshold, mechanical allodynia: after 3 days of treatment, 32.25 μmol/kg ip, p<0.05; for reversal of allodynia signs associated with neuropathic pain: ip during 7 days, 32.25 μmol/kg
Description: This experimental model was proposed by Kim and Chung [Kim, S. H.; Chung, J. M. Pain 1992, 50: 355-363] and consists of ligation of spinal nerves. Male Wistar rats, 180-220 g, were anesthetized with a mixture of ketamine and xylazine (60 mg/kg and 5 mg/kg, respectively) intraperitoneally. After the dorsal region asepsy, an incision was made between L5 and S1. The L6 transverse process was removed for locating the nerves L4 and L5, which were carefully isolated, and tight ligation of the L5 nerve with 6.0 silk thread was made, interrupting flow of the axon of the nerve. After this procedure, para-spinal muscles and skin were sutured, and then a topical antiseptic was applied. False operated animals (sham) were subjected to the same procedure, however the spinal nerve was not ligated.
To evaluate the development of mechanical allodynia, digital analgesimeter (Model EFF301; Insight Equipments), digitalized version coupled to a pointed filament (Von Frey model variant) was used. This test aims to assess changes in tactile sensitivity in response to a mechanical stimulus as a result of a neural damage. The device consisted of a hand-held force transducer fitted with a sensor tip, through which a pressure with increasing strength is applied against the footpad of the animals hindpaw to assess the threshold of paw withdrawal, that is, the digital analgesimeter records the maximal strength, in grams (g), in which the animal withstands until the paw withdrawal reflex.
Animals were placed in individual acrylic boxes and let to acclimate for 30 min before the beginning of the test. After this period, the thresholds of hindpaw withdrawal were determinded. For each hindpaw, five records of the withdrawal thresholds were made, and the average for each hindpaw was defined as the paw withdrawal threshold control.
The treatment started on the 7th day after surgery. Compounds were diluted in water or DMSO and administered through intraperitoneal route on daily basis, during 7 days, at a dose of […]. The effectiveness of tested compounds was assessed on days 1, 3, and 7 days after treatment, always before the next administration of the compound. Latencies were also assessed on days 1, 3, and 7 after treatment interruption.
(§1) Differences were considered significant when p<0.05.

[4] = tested on: rats subjected to sciatic nerve CCI; experiment: Chronic constrictive injury (CCI) of the sciatic nerve, thermal hyperalgesia, paw withdrawal test; format: in vivo, rat; conditions: for increase in latency of paw withdrawal: since the 3rd day of treatment
Description: The chronic constrictive injury (CCI) was induced by sciatic nerve ligation according to the method described by Bennett and Xie [Bennett. G. J.; Xie, Y. K. Pain […], 33: 87-107]. Male Wistar rats, weighing 180-240 g, were anesthetized with a mixture of ketamine and xylazine (60 mg/kg and 5 mg/kg, respectively), intraperitoneally. Through an incision of 0.5 cm (parallel and spaced about 10 mm from the left femur) the sciatic nerve was identified. With a thin glass rod, a small segment of sciatic nerve was exposed and four loosely ligatures were placed around the sciatic nerve spaced 1 mm each other using a 3-0 silk suture thread. After the procedure, the skin was sutured and a topical antiseptic was applied.
To assess animal behavior in response to hyperalgesic phenomenon resulting from sciatic nerve chronic constrictive injury, the model described by Hargreaves and Dubner was used [Hargreaves K., Dubner R., Brown F., Flores C., Joris J. Pain 1988, 32 (1): 77-88]. In this regard, paw withdrawal in response to a painful phenomenon was performed. This is a nociceptive test which involves a peripheral short thermal stimulus induced by the radiant heat of an incandescent lamp bulb. […] Radiant heat has an advantage over the other modes of thermal stimulation in that it produces no tactile stimulus. [Le Bars D., Gozariu M., Cadden S. W. Pharmacology Reviews, 2001, 53 (4), 597-652]. In this assay, a plantar test analgesimeter (ITC Life Science Inc, USA) was used.
Animals were placed in transparent acrylic boxes with tempered glass pane floor for 40 minutes to acclimate. After this period, the radiant heat was applied to the footpads of animals's hindpaws until they make the movement of paw withdrawal. The paw withdrawal latency was defined as the time recorded from the beginning of the radiant heat stimulus and the paw withdrawal. For each paw, three latency records were made, and the average value was used to define the paw withdrawal time control The maximum time that each animal was exposed to the radiant heat source (cut-off) was defined as three times the paw withdrawal time control, to avoid tissue injuries in animals's paws.
The day before surgery, rats, defined as “control before surgery”, were placed in acrylic boxes to the paw withdrawal test. On the 7th day after the surgery (CCI), the paw withdrawal test was again performed in order to verify neuropathic pain has been effectively developed in the left paw—defined as “post-surgery control.”
The paw withdrawal test was assessed during the days 1, 3, and 7 of the treatment (with amitriptyline hydrochloride or the compounds of examples of the instant invention) and on days 1, 3, and 7 after treatment interruption.
as §1

[5] = first day of treatment, 32.25 μmol/kg ip
[6] = 32.25 μmol/kg ip, p<0.05 or p<0.005

Row | Structure (SMILES) | reversion of the signs of mechanical allodynia (rats subjected to SNL [1]; oral 30 mg/kg) | reversion of the signs of mechanical allodynia (rats subjected to SNL [1]; oral 100 mg/kg) | side effects compared to morphine (Swiss mice) | paw withdrawal latency, thermal hyperalgesia (rats subjected to SNL [2]; oral 30 mg/kg, after 7 days of treatment) | paw withdrawal latency, thermal hyperalgesia (rats subjected to SNL [2]; oral 100 mg/kg, after 1 day of treatment) | paw withdrawal threshold, mechanical allodynia (rats subjected to SNL [3]) | analgesic effect on mechanical allodynia after treatment interruption (rats subjected to SNL [3]; after 7 days of 32.25 μmol/kg ip) | onset of significant increase in latency ([4]; 5 mg/kg ip) | reversal of signs of thermal hyperalgesia ([4]; 5 mg/kg ip during 7 days) | onset of significant increase in latency ([4]; 10 mg/kg ip) | reversal of signs of thermal hyperalgesia ([4]; 10 mg/kg ip during 7 days) | antinociceptive effect, paw withdrawal latency vs post-surgery control [4, 5] | increase in latency of paw withdrawal [4, 6] | reversal of allodynia signs associated with neuropathic pain (rats subjected to SNL [3]) | melting point | latency increase, statistical significance ([4]; first day of treatment, 32.25 μmol/kg ip, p<0.05 or p<0.005)
1 | Cl.Cl.Fc1ccc(-c2n[nH]cc2CCN2CCCCC2)cc1.O [C3, 1-{2-[3-(4-fluorophenyl)-1H-pyrazol-4-yl]ethyl}piperidine dihydrochloride monohydrate] | reversion of the signs of mechanical allodynia | reversion of the signs of mechanical allodynia | no side effects of conventional morphine | significantly increased the paw withdrawal latency | significantly increased the paw withdrawal latency | significant (p<0.05) paw withdrawal threshold | analgesic effect is maintained until the first day after treatment interruption | significant increase in latency starting on day 3 of treatment | effective in reversing the signs of thermal hyperalgesia | significant increase in latency starting on day 3 of treatment | effective in reversing the signs of thermal hyperalgesia | antinociceptive effects in the first day of treatment | statistically significant increase in latency of paw withdrawal | – | – | –
2 | Cl.Cl.Fc1ccc(-c2n[nH]cc2CCN2CCOCC2)cc1.O [C9, 4-{2-[3-(4-fluorophenyl)-1H-pyrazol-4-yl]ethyl}morpholine dihydrochloride monohydrate] | – | – | no side effects of conventional morphine | – | – | – | – | – | – | – | – | – | statistically significant increase in latency of paw withdrawal | effective in reverse the hyperalgesia and allodynia signs | – | –
3 | CN1CCN(CCc2c[nH]nc2-c2ccc(F)cc2)CC1.Cl.Cl.Cl.O.O [C11, 1-{2-[3-(4-fluorophenyl)-1H-pyrazol-4-yl]ethyl}-4-methylpiperazine trihydrochloride dihydrate] | – | – | no side effects of conventional morphine | – | – | significant (p<0.05) paw withdrawal threshold | – | – | – | – | – | antinociceptive effects in the first day of treatment | statistically significant increase in latency of paw withdrawal | effective in reverse the hyperalgesia and allodynia signs | – | –
4 | Cl.OC1(c2ccc(Cl)cc2)CCN(CCc2conc2-c2ccc(F)cc2)CC1 [C15, 4-(4-chlorophenyl)-1-{2-[3-(4-fluorophenyl)-1,2-oxazol-4-yl]ethyl}piperidin-4-ol hydrochloride] | – | – | no side effects of conventional morphine | – | – | – | – | – | – | – | – | antinociceptive effects in the first day of treatment | statistically significant increase in latency of paw withdrawal | effective in reverse the hyperalgesia and allodynia signs | 222 to 226 °C (dec.) | –
5 | CCOC(=O)C1(c2ccccc2)CCN(CCc2conc2-c2ccc(F)cc2)CC1.Cl [C17, Ethyl 1-{2-[3-(4-fluorophenyl)-1,2-oxazol-4-yl]ethyl}-4-phenylpiperidine-4-carboxylate hydrochloride] | – | – | no side effects of conventional morphine | – | – | – | – | – | – | – | – | antinociceptive effects in the first day of treatment | – | effective in reverse the hyperalgesia and allodynia signs | – | the latency increase was statistically significant

From patent publication US20150266864A1, “HETEROAROMATIC COMPOUNDS, METHOD FOR PREPARING THE COMPOUNDS, PHARMACEUTICAL COMPOSITIONS, USES AND METHOD FOR TREATING ACUTE AND CHRONIC PAIN” (CRISTÁLIA PRODUTOS QUÍMICOS FARMACÊUTICOS LTDA, priority 2012, published 2015)
